Some test systems named below: ACHN; RXF 393; M14; HCC 2998; PC-3; NCI-H23; NCI/ADR-RES; SF-295; SK-MEL-5; HCT-15; SW-620; SNB-78; HL-60; K562; MDA-MB-435; EKVX; A549; COLO 205; HT-29; SF-539.
Assay in all cases: growth of human tumour cells (NCI), 48 h

The values below come from ChEMBL document CHEMBL1201862, “PubChem BioAssay data set” (2004).

Several values for one entry are separate records, joined by “and”; a condition that tells them apart may be missing. Identical values can stand only once.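 All cell lines were grown in 96-well plates and treated with compound for 48 hours. GI50 marks 50% less growth.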 Activity calls are given as the source filed them. Cut-off read from the data, not from the text of the source: active = GI50 up to about 1.1 µM and inactive = higher. Bounds are passed on as bounds.

Take `O=[N+]([O-])c1ccc2c(Nc3ccccc3-c3ccccc3Nc3c4ccccc4nc4cc([N+](=O)[O-])ccc34)c3ccccc3nc2c1`: the GI50 was 3.17 µM (inactive) in the assay on ACHN; 1.52 µM (inactive) with RXF 393; 2.92 µM (inactive) in the assay with M14; 3.98 µM (inactive) with HCC 2998; 1.44 µM (inactive) with PC-3; 10.8 µM (inactive) in the assay on NCI-H23. Further, the GI50 with NCI/ADR-RES is 7.41 µM (inactive); in the assay on SF-295 it was 5.4 µM (inactive); with SK-MEL-5, 1.99 µM (inactive); with HCT-15, 3.77 µM; with SW-620 it was 1.69 µM (inactive); with SNB-78 it was > 100 µM (inactive). The GI50 with HL-60 is 2.68 µM (inactive); with K562, 1.57 µM (inactive); in the assay on MDA-MB-435, 1.34 µM (inactive); in the assay on EKVX, 11.8 µM (inactive); in the assay on A549, 6.07 µM (inactive); in the assay with COLO 205, 2.74 µM (inactive). In addition, the GI50 with HT-29 is 4.14 µM (inactive); in the assay on SF-539 it was 4.59 µM (inactive).
Regarding `CC1CCC2(C(=O)O)CCC3(C)C(=CCC4C5(C)CCC(O)C(C)(C)C5CCC43C)C2C1C` (stereo not given), the GI50 in the assay on RXF 393 was 6.12 µM (inactive) and 11.4 µM (inactive); with M14 it was 2.16 µM (inactive); with HCC 2998, 11.1 µM (inactive) and 10.6 µM (inactive); in the assay on PC-3 it was 15.8 µM (inactive); in the assay with NCI-H23 it was 18.5 µM (inactive) and 11.9 µM (inactive); with NCI/ADR-RES it was 14.7 µM (inactive) and 11.2 µM (inactive). Besides, the GI50 in the assay on SF-295 was 3.3 µM (inactive) and 3.22 µM (inactive); in the assay on SNB-78, 13.3 µM (inactive); with HL-60 it was 3.05 µM (inactive) and 2.64 µM (inactive); in the assay with K562, 3.84 µM (inactive); in the assay on MDA-MB-435, 30.1 µM (inactive); in the assay with EKVX it was 10.6 µM (inactive) and 13.8 µM (inactive). For the same compound, the GI50 in the assay with COLO 205 is 13.7 µM (inactive) and 14.7 µM (inactive); in the assay on HT-29, 20.7 µM (inactive) and 11 µM (inactive); in the assay on SF-539 it was 13.4 µM (inactive) and 11 µM (inactive).
